Laboratory results: paper PMC12428754, “Testing Strategies for Metabolite-Mediated Neurotoxicity” (International Journal of Molecular Sciences, 2025)

What was measured:
[1] = tested on: hiPSC-derived immature human dorsal root ganglia neuron-like cells; test: PeriTox (UKN5a) neurite outgrowth assay; format: cell-based
Protocol: PeriTox assay was performed as previously described. In brief, cryopreserved hiPSC-derived immature human dorsal root ganglia neuron-like cells were thawed and plated at a density of 100,000 cells/cm^2 into matrigel-coated 96-well plates. The cells were cultured in 75 µL PeriTox differentiation medium (PDM) consisting of 25% KSR-S and 75% N2-S media supplemented with 1.5 µM CHIR99021, 1.5 µM SU5402, and 5 µM DAPT (KSR-S: knockout DMEM with 15% serum replacement, 1x Glutamax, 1x nonessential amino acids, and […] beta-mercaptoethanol; N2-S: DMEM/F12, with 2 mM Glutamax, 0.1 mg/mL apotransferrin, 1.55 mg/mL glucose, 25 µg/mL insulin, […] putrescine, 30 nM selenium, and 20 nM progesterone). After one hour, 25 µL PDM with 4x concentrated serial dilutions of the test compounds was added to the cells.
The image acquisition and analysis were conducted according to established protocols. The cells were stained with Hoechst H-33342 (1 µg/mL) to visualise nuclei and calcein-AM (1 µM) to label viable cell structures. Fluorescent images were acquired using an automated imaging system. An image analysis algorithm detected nuclei to define somatic regions, which were then excluded from the total calcein-positive area. The remaining signal was quantified as the neurite area.
In the first step, matched technical replicates were averaged. […] For visualisation, GraphPad Prism 9 was used. […]
Supplementary Figure S1: Comparison of data from the MitoMet test and the PeriTox test. A) Exposure scheme for the PeriTox test (UKN5a):
For testing, cryopreserved hiPSC-derived immature human dorsal root ganglia neuron-like cells were thawed and plated into 96-well plates. Cells were treated with toxicants at one h after plating. Neurite outgrowth and viability were determined at 24 h later, using automated high content imaging. B) Benchmark concentrations (BMC25) were calculated as a measure for “onset of toxicity” for the MitoMet (UKN4b; as described in Figure 1) and UKN5a assay. If no BMC could be determined, the highest tested concentration was used as surrogate endpoint. The arrows indicate the sensitivity shifts of parent vs metabolite in the respective assay. […]

[2] = tested on: hiPSC-derived neural crest-like cells; test: S9 metabolisation module followed by cMINC migration assay; format: cell-based, human; conditions: for EC25 migration (+NADPH): metabolite mixture generated with NADPH; for EC25 migration (+NADPH) / EC25 migration (−NADPH): nominal concentration of parent; for EC25 migration (−NADPH): metabolite mixture generated without NADPH; for fold change of potency (EC25) between NADPH-independent and -dependent metabolite mixtures: potency increased with NADPH
Protocol: Figure 6 The transfer of the metabolisation module to the neural crest cell migration assay (cMINC). (A) A schematic of the cMINC (circular migration of neural crest cells) assay. The cells were seeded around a central stopper to create a cell-free circular area. Migration was initiated 24 h after seeding by removing the stopper. This is defined as the day of migration (DoM) 0. On DoM 1, the cells were exposed to toxicants. After 24 h of exposure, both cell migration and viability were quantified, using automated high-content imaging. (B) Compatibility of the metabolisation module (preincubation with 500 µg/mL S9 at 37 °C for 2 h) with the cMINC assay: The setup was as described in Figure 4 and as exemplified in Figure 5A. No compound was added (solvent control). The S9 mixture (at 500 µg/mL ± NADPH) was added to the normal cell culture medium of the cMINC assay (so that the addition was 10% of the total volume). Data are from three independent experiments. (C,D) The concentration-dependent effects on migration were evaluated for metabolite mixtures generated from bromethalin (C) or chlorfenapyr (D). […] The arrows indicate the direction of sensitivity shift between NADPH-dependent and -independent metabolite mixtures, with accompanying fold change values. The concentrations are given as nominal concentrations of the parent compound. Abbreviations: n.s., not significant. TEXT PRINTED IN THE PICTURE: (C) Bromethalin: x30 | (D) Chlorfenapyr: x15
The MINC assay was performed as previously described. Briefly, 96-well plates were prepared by inserting a central 2 mm diameter stopper (Platypus Technologies, Madison, WI, USA) into pre-coated wells with a composite poly-L-ornithine (PLO; 10 µg/mL), fibronectin (1 µg/mL), and laminin (1 µg/mL) matrix. Cryopreserved human induced pluripotent stem cell (hiPSC)-derived neural crest-like cells were thawed and seeded at a density of 95,000 cells/cm^2 around the stopper to create a defined, cell-free circular area. The cells were cultured in N2-S medium supplemented with […] of the cytokines EGF and FGF. After 24 h, the stoppers were removed and the medium refreshed to initiate cell migration into the cell-free centre (defined as the day of migration, DoM 0). On DoM 1, the cells were exposed to test compounds by the addition of a 5× concentrated toxicant solution. After a further 24 h (DoM 2), cell migration and viability were assessed. The cells were stained with 0.5 µM calcein-AM and 1 µg/mL Hoechst 33342 (both from Sigma-Aldrich, Steinheim, Germany). High content imaging was performed, and data were analysed using the RingAssay V1 software (http://invitrotox.uni-konstanz.de/, accessed on 3 February 2025).
In the first step, matched technical replicates were averaged. […] For visualisation, GraphPad Prism 9 was used.
The supernatant was used further.

Row | Structure (SMILES) | effect on peripheral neurite outgrowth ([1]; result in words) | EC25 migration (+NADPH) [2] [nM] | EC25 migration (−NADPH) [2] [nM] | fold change of potency (EC25) between NADPH-independent and -dependent metabolite mixtures [2] | parent/metabolite potency ratio (BMC25) ([1]; listed under the metabolite)
1 | O=C(c1ccccc1)c1ccc(O)cc1 [4-Hydroxybenzophenone] | neither benzophenone nor its hydroxy metabolite showed any significant effect | – | – | – | –
2 | CN(c1c(Br)cc(Br)cc1Br)c1c([N+](=O)[O-])cc([N+](=O)[O-])cc1C(F)(F)F [Bromethalin] | – | 26 | 790 | about 30 fold | –
3 | CCOCn1c(-c2ccc(Cl)cc2)c(C#N)c(Br)c1C(F)(F)F [Chlorfenapyr] | – | 600 | 9000 | 15 fold | –
4 | N#Cc1c(-c2ccc(Cl)cc2)[nH]c(C(F)(F)F)c1Br [Tralopyril] | – | – | – | – | 15
